# PubChem BioAssay (NCI)
#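 48-hour exposure; five concentrations; linearly interpolated endpoints. TGI denotes the concentration required for complete inhibition of growth.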
# Tests used:
# Assay in all cases: NCI tumour cell line growth inhibition, 48 h
# DLD-1 colon = test system: DLD-1 colon
# HOP-92 NSCLC = test system: HOP-92 NSCLC
# NCI-H226 lung = test system: NCI-H226 lung
# HCT-116 colon = test system: HCT-116 colon
# HCC-2998 colon = test system: HCC-2998 colon
# CCRF-CEM leukemia = test system: CCRF-CEM leukemia
# K-562 leukemia = test system: K-562 leukemia
# NCI-H460 lung = test system: NCI-H460 lung
# MCF7 breast = test system: MCF7 breast
# UACC-62 melanoma = test system: UACC-62 melanoma
# RXF 393 renal = test system: RXF 393 renal
# UO-31 renal = test system: UO-31 renal
# M19-MEL melanoma = test system: M19-MEL melanoma
# P388 leukemia = test system: P388 leukemia
# MALME-3M melanoma = test system: MALME-3M melanoma
# NCI-H23 lung = test system: NCI-H23 lung
# HL-60(TB) leukemia = test system: HL-60(TB) leukemia
# NCI-H522 lung = test system: NCI-H522 lung
# KM20L2 colon = test system: KM20L2 colon
# U251 CNS = test system: U251 CNS
# SK-MEL-5 melanoma = test system: SK-MEL-5 melanoma
# DMS 273 small cell lung = test system: DMS 273 small cell lung
# NCI/ADR-RES ovarian = test system: NCI/ADR-RES ovarian
# HOP-18 NSCLC = test system: HOP-18 NSCLC
# EKVX NSCLC = test system: EKVX NSCLC
# SK-OV-3 ovarian = test system: SK-OV-3 ovarian
# SN12K1 renal = test system: SN12K1 renal
# SW-620 colon = test system: SW-620 colon
# DMS 114 small cell lung = test system: DMS 114 small cell lung
# P388/ADR leukemia = test system: P388/ADR leukemia
# IGROV1 ovarian = test system: IGROV1 ovarian
# SF-268 CNS = test system: SF-268 CNS
# A549 NSCLC = test system: A549 NSCLC
# MOLT-4 leukemia = test system: MOLT-4 leukemia
# SNB-78 CNS = test system: SNB-78 CNS
# SK-MEL-28 melanoma = test system: SK-MEL-28 melanoma
# SK-MEL-2 melanoma = test system: SK-MEL-2 melanoma
# HOP-62 NSCLC = test system: HOP-62 NSCLC
# SN12C renal = test system: SN12C renal
# SNB-75 CNS = test system: SNB-75 CNS
# HCT-15 colon = test system: HCT-15 colon
# CAKI-1 renal = test system: CAKI-1 renal
# KM12 colon = test system: KM12 colon
# SF-539 CNS = test system: SF-539 CNS
# OVCAR-5 ovarian = test system: OVCAR-5 ovarian
# LOX IMVI melanoma = test system: LOX IMVI melanoma
# OVCAR-8 ovarian = test system: OVCAR-8 ovarian
# OVCAR-3 ovarian = test system: OVCAR-3 ovarian
# RPMI-8226 leukemia = test system: RPMI-8226 leukemia
# COLO 205 colon = test system: COLO 205 colon
# OVCAR-4 ovarian = test system: OVCAR-4 ovarian
# UACC-257 melanoma = test system: UACC-257 melanoma
# SNB-19 CNS = test system: SNB-19 CNS
# HT29 colon = test system: HT29 colon
# A498 renal = test system: A498 renal
# SF-295 CNS = test system: SF-295 CNS
# XF 498 CNS = test system: XF 498 CNS
compound,measurement,setting,value
CCCCc1[nH]ccc2c(C)c3nc4ccccc4c3cc12,TGI,DLD-1 colon,13.3 µM
same,TGI,HOP-92 NSCLC,12.4 µM
same,TGI,NCI-H226 lung,24.6 µM
same,TGI,HCT-116 colon,4.76 µM
same,TGI,HCC-2998 colon,8.19 µM
same,TGI,CCRF-CEM leukemia,10.6 µM
same,TGI,K-562 leukemia,5.98 µM
same,TGI,NCI-H460 lung,5.03 µM
same,TGI,MCF7 breast,10.8 µM
same,TGI,UACC-62 melanoma,8.75 µM
same,TGI,RXF 393 renal,7.61 µM
same,TGI,UO-31 renal,10.9 µM
same,TGI,M19-MEL melanoma,10.9 µM
same,TGI,P388 leukemia,4.13 µM
same,TGI,MALME-3M melanoma,14.5 µM
same,TGI,NCI-H23 lung,16 µM
same,TGI,HL-60(TB) leukemia,3.45 µM
same,TGI,NCI-H522 lung,6.75 µM
same,TGI,KM20L2 colon,10.8 µM
same,TGI,U251 CNS,12.8 µM
same,TGI,SK-MEL-5 melanoma,6.52 µM
same,TGI,DMS 273 small cell lung,2.4 µM
same,TGI,NCI/ADR-RES ovarian,5.87 µM
same,TGI,HOP-18 NSCLC,6.83 µM
same,TGI,EKVX NSCLC,13.6 µM
same,TGI,SK-OV-3 ovarian,16.8 µM
same,TGI,SN12K1 renal,5.75 µM
same,TGI,SW-620 colon,6.78 µM
same,TGI,DMS 114 small cell lung,4.14 µM
same,TGI,P388/ADR leukemia,7.29 µM
same,TGI,IGROV1 ovarian,16.9 µM
same,TGI,SF-268 CNS,21.6 µM
same,TGI,A549 NSCLC,14.1 µM
same,TGI,MOLT-4 leukemia,4.72 µM
same,TGI,SNB-78 CNS,21.3 µM
same,TGI,SK-MEL-28 melanoma,11.8 µM
same,TGI,SK-MEL-2 melanoma,11.4 µM
same,TGI,HOP-62 NSCLC,14.5 µM
same,TGI,SN12C renal,19.4 µM
same,TGI,SNB-75 CNS,15.8 µM
same,TGI,HCT-15 colon,8.49 µM
same,TGI,CAKI-1 renal,6.33 µM
same,TGI,KM12 colon,12.7 µM
same,TGI,SF-539 CNS,7.45 µM
same,TGI,OVCAR-5 ovarian,17.2 µM
same,TGI,LOX IMVI melanoma,4.3 µM
same,TGI,OVCAR-8 ovarian,9.49 µM
same,TGI,OVCAR-3 ovarian,10.8 µM
same,TGI,RPMI-8226 leukemia,6.77 µM
same,TGI,COLO 205 colon,3.39 µM
same,TGI,OVCAR-4 ovarian,13.5 µM
same,TGI,UACC-257 melanoma,5.13 µM
same,TGI,SNB-19 CNS,11.6 µM
same,TGI,HT29 colon,8.85 µM
same,TGI,A498 renal,13.4 µM
same,TGI,SF-295 CNS,8.41 µM
COc1cc(-c2ccc(N=Nc3c(S(=O)(=O)O)cc4cc(S(=O)(=O)O)cc(N)c4c3O)c(OC)c2)ccc1N=Nc1c(S(=O)(=O)O)cc2cc(S(=O)(=O)O)cc(N)c2c1O,TGI,DLD-1 colon,> 100 µM
same,TGI,HOP-92 NSCLC,> 77.4 µM
same,TGI,NCI-H226 lung,> 100 µM
same,TGI,HCT-116 colon,> 100 µM
same,TGI,HCC-2998 colon,> 100 µM
same,TGI,CCRF-CEM leukemia,> 100 µM
same,TGI,K-562 leukemia,> 100 µM
same,TGI,NCI-H460 lung,> 100 µM
same,TGI,MCF7 breast,> 100 µM
same,TGI,RXF 393 renal,> 100 µM
same,TGI,UO-31 renal,> 100 µM
same,TGI,M19-MEL melanoma,> 100 µM
same,TGI,P388 leukemia,> 100 µM
same,TGI,MALME-3M melanoma,> 100 µM
same,TGI,NCI-H23 lung,> 100 µM
same,TGI,HL-60(TB) leukemia,> 100 µM
same,TGI,NCI-H522 lung,> 100 µM
same,TGI,KM20L2 colon,> 100 µM
same,TGI,U251 CNS,> 100 µM
same,TGI,SK-MEL-5 melanoma,> 100 µM
same,TGI,DMS 273 small cell lung,> 100 µM
same,TGI,NCI/ADR-RES ovarian,> 100 µM
same,TGI,HOP-18 NSCLC,> 100 µM
same,TGI,EKVX NSCLC,> 100 µM
same,TGI,SK-OV-3 ovarian,> 100 µM
same,TGI,SN12K1 renal,> 100 µM
same,TGI,SW-620 colon,> 100 µM
same,TGI,DMS 114 small cell lung,> 100 µM
same,TGI,IGROV1 ovarian,> 100 µM
same,TGI,SF-268 CNS,> 100 µM
same,TGI,A549 NSCLC,> 100 µM
same,TGI,MOLT-4 leukemia,> 100 µM
same,TGI,SNB-78 CNS,> 100 µM
same,TGI,SK-MEL-28 melanoma,> 100 µM
same,TGI,SK-MEL-2 melanoma,> 100 µM
same,TGI,HOP-62 NSCLC,> 100 µM
same,TGI,SN12C renal,> 100 µM
same,TGI,SNB-75 CNS,> 100 µM
same,TGI,HCT-15 colon,> 100 µM
same,TGI,KM12 colon,> 100 µM
same,TGI,SF-539 CNS,> 100 µM
same,TGI,OVCAR-5 ovarian,> 100 µM
same,TGI,LOX IMVI melanoma,> 100 µM
same,TGI,OVCAR-8 ovarian,> 100 µM
same,TGI,OVCAR-3 ovarian,> 100 µM
same,TGI,RPMI-8226 leukemia,> 100 µM
same,TGI,XF 498 CNS,> 67.9 µM
same,TGI,COLO 205 colon,> 100 µM
same,TGI,OVCAR-4 ovarian,> 100 µM
same,TGI,UACC-257 melanoma,> 100 µM
same,TGI,SNB-19 CNS,> 100 µM
same,TGI,HT29 colon,> 100 µM
same,TGI,A498 renal,> 100 µM
same,TGI,SF-295 CNS,> 100 µM
